Test results taken from patent US20250296971A1, “GASTRIC INHIBITORY PEPTIDE RECEPTOR LIGANDS” (priority 2021, published 2025).
pIC50: −log10 of the molar value. Where two headings read alike, the source gives them in different places. *1 amine or outer side, *2 acyl side, *3 side chain or, on linkers, in order; H or OH if unused. Where a SMILES comes first, the peptide text is derived from it. Bridges are numbered along the chain shown (N, C = ends). [ ]: non-standard residue; d: D form. The star is where a group is joined. X5 = NC(=O)[C@H](CCCCNC(=O)CN1CCN(CC(=O)O)CCN(CC(=O)O)CCN(CC(=O)O)CC1)NC(=O)CCC(=O)NCCCOCCOCCOCCCN*; DOTA(Lu) = O=C1CN2CCN3CCN(CC(=O)*)CCN(CC2)CC(=O)[O][Lu]([O]1)[O]C(=O)C3; DOTA = O=C(O)CN1CCN(CC(=O)O)CCN(CC(=O)*)CCN(CC(=O)O)CC1; Propanoyl(3-(1-naphthyl)) = O=C(CCc1cccc2ccccc12)*; Trp(5-Cl) = N[C@@H](Cc1c[nH]c2ccc(Cl)cc12)C(=O)O; Pyridine(2,6-diCH2) = c1cc(C[*:1])nc(C[*:2])c1; mXylylene = c1cc(C[*:1])cc(C[*:2])c1; X7 = c1cc(CSCCN[*:2])cc(C[*:1])c1; Hyp = O=C(O)[C@@H]1C[C@@H](O)CN1; X1 = O=C(CN1CCC(N[*:1])CC1)[*:2]; Suc = O=C(CCC(=O)[*:2])[*:1]; Thp = NC1(C(=O)O)CCOCC1; Aib = CC(C)(N)C(=O)O

Molecular target: T1, GIPR (CHO-K1-hGIPR cells) (Homo sapiens, UniProt P48546)
T1 construct: host or cells: CHO-K1
T1 sequence (P48546 22-466): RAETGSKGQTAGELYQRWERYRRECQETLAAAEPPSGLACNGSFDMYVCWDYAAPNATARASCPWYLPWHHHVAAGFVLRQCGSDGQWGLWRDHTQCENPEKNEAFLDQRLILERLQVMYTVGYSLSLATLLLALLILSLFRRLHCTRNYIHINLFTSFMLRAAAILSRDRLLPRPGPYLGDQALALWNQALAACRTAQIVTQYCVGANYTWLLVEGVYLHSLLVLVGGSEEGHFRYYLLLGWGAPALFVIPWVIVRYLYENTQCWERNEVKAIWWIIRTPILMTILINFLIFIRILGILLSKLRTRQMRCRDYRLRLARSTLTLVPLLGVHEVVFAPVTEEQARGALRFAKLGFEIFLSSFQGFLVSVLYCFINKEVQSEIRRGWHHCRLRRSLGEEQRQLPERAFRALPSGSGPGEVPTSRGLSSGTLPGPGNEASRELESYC
Test: FACS binding assay
Details: for IC50: read-out: pIC50 Category (converted)
How it was run: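 Median fluorescence in the APC channel, measured on washed CHO-K1 cells overexpressing human GIPR, was fitted by four-parameter logistic regression against peptide concentration to yield EC50 or IC50 values. Secondary labelling used APC-streptavidin (1 μg/mL, 30 min, ice).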

[1] = competition with 20 nM GIP-057, 4° C. for 1 hour
[2] = competition with 20 nM GIP-057, 4° C., 1 hour

SMILES | IC50 [1] | also measured
CC[C@H](C)[C@@H]1NC(=O)[C@H](CC(C)C)NC(=O)[C@@H](C)NC(=O)[C@@H](NC(=O)[C@H](CC(C)C)NC(=O)[C@H](CCC(=O)O)NC(=O)[C@@H]2CCCN2C(=O)[C@H](Cc2c[nH]c3ccccc23)NC(=O)[C@H](Cc2c[nH]c3ccccc23)NC(=O)CCC(=O)O)CSCc2cccc(c2)CSC[C@@H](C(N)=O)NC1=O [GIP-314, HO-Succinyl-Trp-Trp-Pro-Glu-Leu-[Cys(3MeBn)-ala-Leu-Ile-Cys]-NH2] (Suc-WWPELC[dA]LIC-NH2; linker 6-10 via mXylylene) | 100 to 794 nM | 
CC(=O)N[C@@H](CC(=O)O)C(=O)N[C@@H](Cc1c[nH]c2ccccc12)C(=O)N[C@@H](Cc1c[nH]c2ccc(Cl)cc12)C(=O)N1C[C@H](O)C[C@H]1C(=O)N[C@@H](CCC(=O)O)C(=O)N[C@H](CC(C)C)C(=O)N[C@H]1CSCc2cccc(n2)CSC[C@@H](C(N)=O)NC(=O)[C@H](CO)NC(=O)[C@H](CC(C)C)NC(=O)C2(CCOCC2)NC1=O [GIP-322, Ac-Asp-Trp-5Clw-Hyp-Glu-leu-[Cys(2Lut)-Thp-Leu-Ser-Cys]-NH2] (Ac-DW[Trp(5-Cl)][Hyp]E[dL]C[Thp]LSC-NH2; linker 7-11 via Pyridine(2,6-diCH2)) | 100 to 794 nM | 
CC[C@H](C)[C@@H]1NC(=O)[C@H](CC(C)C)NC(=O)C(C)(C)NC(=O)[C@@H](NC(=O)[C@@H](CC(C)C)NC(=O)[C@H](CCC(=O)O)NC(=O)[C@@H]2CCCN2C(=O)[C@H](Cc2c[nH]c3ccc(Cl)cc23)NC(=O)[C@H](Cc2c[nH]c3ccccc23)NC(=O)[C@H](CC(=O)O)NC(=O)CN2CCC(NC(=O)CN3CCN4CCN5CCN(CC3)CC(=O)[O][Lu]([O]C(=O)C4)[O]C(=O)C5)CC2)CSCc2cccc(c2)CSCCNC1=O [GIP-161, LuDOTA-APAc-Asp-Trp-5Clw-Pro-Glu-leu-[Cys(3MeBn)-Aib-Leu-Ile-AET]] ({DOTA(Lu)}-[X1]DW[Trp(5-Cl)]PE[dL]C[Aib]LI; linker 8-C via X7) |  | pIC50 (pIC50 Category, competition with 20 nM GIP-057, 4° C., 1 hour): > 8.00
CC[C@H](C)[C@@H]1NC(=O)[C@H](Cc2ccccc2)NC(=O)C2(CCOCC2)NC(=O)[C@@H](NC(=O)[C@@H](CC(C)C)NC(=O)[C@H](CCC(=O)O)NC(=O)[C@@H]2C[C@@H](O)CN2C(=O)[C@H](Cc2c[nH]c3ccc(Cl)cc23)NC(=O)[C@H](Cc2c[nH]c3ccccc23)NC(=O)[C@H](CC(=O)O)NC(C)=O)CSCc2cccc(n2)CSC[C@@H](C(N)=O)NC1=O [GIP-232, Ac-Asp-Trp-5Clw-Hyp-Glu-leu-[Cys(2Lut)-Thp-Phe-Ile-Cys]-NH2] (Ac-DW[Trp(5-Cl)][Hyp]E[dL]C[Thp]FIC-NH2; linker 7-11 via Pyridine(2,6-diCH2)) |  | IC50 [2]: < 10 nM
CC[C@H](C)[C@@H]1NC(=O)[C@H](CC(C)C)NC(=O)C2(CCOCC2)NC(=O)[C@@H](NC(=O)[C@@H](CC(C)C)NC(=O)[C@H](CCC(=O)O)NC(=O)[C@@H]2C[C@@H](O)CN2C(=O)[C@H](Cc2c[nH]c3ccc(Cl)cc23)NC(=O)[C@H](Cc2c[nH]c3ccccc23)NC(=O)[C@H](CC(=O)O)NC(=O)CN2CCN(CC(=O)O)CCN(CC(=O)O)CCN(CC(=O)O)CC2)CSCc2cccc(n2)CSC[C@@H](C(N)=O)NC1=O [GIP-125, DOTA-Asp-Trp-5Clw-Hyp-Glu-leu-[Cys(2Lut)-Thp-Leu-Ile-Cys]-NH2] ({DOTA}-DW[Trp(5-Cl)][Hyp]E[dL]C[Thp]LIC-NH2; linker 7-11 via Pyridine(2,6-diCH2)) |  | IC50 [2]: < 10 nM

Further lines, with some results ahead:

IC50 [1] | SMILES | also measured
100 to 794 nM | CC[C@H](C)[C@@H]1NC(=O)[C@H](CC(C)C)NC(=O)[C@H](C)NC(=O)[C@H](NC(=O)[C@H](CC(C)C)NC(=O)[C@H](CCC(=O)O)NC(=O)[C@@H]2CCCN2C(=O)[C@H](Cc2c[nH]c3ccccc23)NC(=O)[C@H](Cc2c[nH]c3ccccc23)NC(=O)[C@H](CC(=O)O)NC(=O)[C@H](Cc2ccc(O)cc2)NC(=O)[C@@H](N)CCSC)CSCc2cccc(c2)CSC[C@@H](C(N)=O)NC1=O [GIP-309] (H-MYDWWPEL[dC]ALIC-NH2; linker 9-13 via mXylylene) | 
> 1000 nM | CC[C@H](C)[C@@H]1NC(=O)[C@H](CC(C)C)NC(=O)C(C)(C)NC(=O)[C@@H](NC(=O)[C@H](CC(C)C)NC(=O)[C@H](CCC(=O)O)NC(=O)[C@@H]2CCCN2C(=O)CCc2cccc3ccccc23)CSCc2cccc(c2)CSC[C@@H](C(=O)NCCCOCCOCCOCCCNC(=O)CCC(=O)N[C@@H](CCCCNC(=O)CN2CCN(CC(=O)O)CCN(CC(=O)O)CCN(CC(=O)O)CC2)C(N)=O)NC1=O [GIP-299, Nph1p-Pro-Glu-Leu-[Cys(3MeBn)-Aib-Leu-Ile-Cys]-Ttds-Lys(DOTA)-NH2] ({Propanoyl(3-(1-naphthyl))}-PELC[Aib]LIC-X5; linker 4-8 via mXylylene) | 
